From patent publication US20240299353A1, “COMPOSITIONS AND METHODS FOR TREATING […] 5-MEO-DMT” (Alvarius Pharmaceuticals Ltd., priority 2021, published 2024)

Assays:
mGluR5 = test: Western blot of mGluR5 in brain regions, chronic cocaine ± 5-MeO-DMT; assay type: in vivo, Male Wistar rats
Text: Male Wistar rats aged 7 weeks were acclimatized to the facility for 1 week prior to the beginning of the study. […] Animals were euthanized 23- or 119-hours following vehicle or 5-MeO-DMT administration.
Following euthanasia brain regions of interest were isolated. Briefly, the olfactory bulbs were removed before the brain was placed in a rat brain matrix (FIG. 2A). Sterile blades were inserted at positions 2 and 3 (FIG. 2B) to extract a coronal slice containing the Bregma+˜0.2-+˜2.2 coordinates (FIG. 2C). From this tissue slice a blunted 12 G needle was used to punch dissect the NAc and dorsal striatum (DS) (FIG. 2D-2E) identified using the rat brain atlas (Panxinos and Watson 2nd edition). […]
Determination of protein concentration—a bicinchoninic acid assay (BCA, ThermoFisher) was conducted to determine the total protein concentration in tissue lysates following manufacturer's instructions. […] For tissue lysates a 1:10 dilution was performed with cell lysis buffer to ensure absorbance values lay within the working range established by the standards. […] The plate was covered and incubated for 30 mins at 37° C. before absorbance was read at 562 nm on a plate reader (SpectraMax M3). The absorbance values were used to form a standard curve of known protein concentrations and protein concentration of samples were derived using the equation of the line. […]

rats = test: Acute adverse effects (serotonin-associated toxicity) in the behaviour study; assay type: in vivo
Method: In this instance the animals were 9 weeks old at the initiation of drug exposures and we selected just the high (20 mg/kg) dose of 5-MeO-DMT from the molecular study. […] Due to the number of behavioral paradigms to be completed by each animal we divided the study into two cohorts staggered by two weeks with 8 animals coming from each cohort to make up the 16 animals for each treatment group. 23 hours after 5-MeO-DMT administration the animals were introduced to the open field arena where they were allowed to freely explore the area for 5 mins. Following the open field test (OFT) animals were returned to their home cage for 2 hours before beginning either the elevated plus maze (EPM) or pre-pulse inhibition (PPI) testing. 24 hours after completing the OFT animals were returned to the chamber for the first session in novel object (NO1) testing. The animals were returned to their home cage for 2 hours before beginning the EPM or PPI test. 24 hours after NO1 the animals returned to the open field chamber for the second session in novel object (N02) testing. After completing N02 animals were returned to their home cage for 2 hours before they underwent the forced swim test (FST) pre-test. 24 hours later the animals were returned to the FS cylinders for the FST. Upon completion of the FST all animals were euthanized. A timeline of this experimental cohort is described in FIG. 8A.
Within 5-10 mins of administration a series of symptoms emerged that we believed were indicative of acute serotonin-associated toxicity, usually termed “serotonin syndrome” as a result of excessive serotonergic activity (Haberzettl et al. 2013). These symptoms overlap with those induced by acute psychedelic administration including head twitches, tremor, hind limb abduction, Straub tail, head shaking, head weaving and flat/low body posture however in this instance symptoms progressed rapidly to include hyperthermia, tachycardia, trembling and seizures. […] In total 7 of the 16 animals that were administered 20 mg/kg 5-MeO-DMT died or were euthanized for ethical reasons. […] As the study was divided into two cohorts we consulted with the designated vet in BMF as to what amendments should be made to our study protocol to reduce the risk of harm to animals in cohort 2 and a number of changes were implemented to the study design as outlined below.
The experiment was conducted as described for cohort 1 for the first 13 days of injections. There are a number of notable differences in experimental procedures between the two cohorts of animals to be highlighted. […] Finally, the dose of 5-MeO-DMT was reduced to 10 mg/kg. The order and timing of all the behavioral paradigms were kept constant between the cohorts. A timeline of this experimental cohort is described in FIG. 8B. Additionally, 5-MeO-DMT administrations were staggered so animals could be observed for the duration of acute drug effects and to ensure recovery prior to the next animal being injected. The typical symptoms of psychedelic drug administration outlined above were reproduced in all animals administered 5-MeO-DMT.

[1] = i.p. administration, rodents; cited from earlier work

In the case of COc1ccc2[nH]cc(CCN(C)C)c2c1 [5-MeO-DMT, 5-methoxy-N,N-dimethyltryptamine], the mGluR5 expression (mGluR5; PFC, 24 h, 20 mg/kg 5-MeO-DMT in saline treated animals) is reported as “significant decrease in receptor expression”, the mGluR5 expression (mGluR5; nucleus accumbens, 5-MeO-DMT, either tested concentration) is reported as “no change” and the “time to emergence of symptoms indicative of acute serotonin-associated toxicity” value (rats; cohort 1 (20 mg/kg 5-MeO-DMT)) is reported as 5 to 10 min. For the same molecule, the “adverse effects after administration” value (rats; cohort 1, 20 mg/kg 5-MeO-DMT, 1 h after last saline or cocaine) was “strong adverse effects in a significant proportion of animals”, the “animals that died or were euthanized for ethical reasons” value (rats; cohort 1, all animals administered 20 mg/kg 5-MeO-DMT) was 7 of the 16 and the “animals that died or were euthanized” value (rats; cohort 1, cocaine+5-MeO-DMT (20 mg/kg) group) was 5 animals. For the same molecule, the “animals that died or were euthanized” value (rats; cohort 1, saline+5-MeO-DMT (20 mg/kg) group) was 2 animals, the “animals euthanized for early signs of serotonin-associated toxicity” value (rats; cohort 2, saline+5-MeO-DMT (10 mg/kg) group) was 2 animals and the “terminal half-life (t½)” value [1] was 12 to 19 min. For the same molecule, the “time of maximal drug concentration” value [1] was 5 to 7 min.
